One may read the IC50 as the point on the concentration scale where inhibition reaches its midpoint. A higher IC50 goes with weaker potency in that assay.

Each structure is given as a SMILES string.

The target in the assay is T1, GRK2 (Homo sapiens, UniProt P25098).
T1 sequence (P25098 1-689): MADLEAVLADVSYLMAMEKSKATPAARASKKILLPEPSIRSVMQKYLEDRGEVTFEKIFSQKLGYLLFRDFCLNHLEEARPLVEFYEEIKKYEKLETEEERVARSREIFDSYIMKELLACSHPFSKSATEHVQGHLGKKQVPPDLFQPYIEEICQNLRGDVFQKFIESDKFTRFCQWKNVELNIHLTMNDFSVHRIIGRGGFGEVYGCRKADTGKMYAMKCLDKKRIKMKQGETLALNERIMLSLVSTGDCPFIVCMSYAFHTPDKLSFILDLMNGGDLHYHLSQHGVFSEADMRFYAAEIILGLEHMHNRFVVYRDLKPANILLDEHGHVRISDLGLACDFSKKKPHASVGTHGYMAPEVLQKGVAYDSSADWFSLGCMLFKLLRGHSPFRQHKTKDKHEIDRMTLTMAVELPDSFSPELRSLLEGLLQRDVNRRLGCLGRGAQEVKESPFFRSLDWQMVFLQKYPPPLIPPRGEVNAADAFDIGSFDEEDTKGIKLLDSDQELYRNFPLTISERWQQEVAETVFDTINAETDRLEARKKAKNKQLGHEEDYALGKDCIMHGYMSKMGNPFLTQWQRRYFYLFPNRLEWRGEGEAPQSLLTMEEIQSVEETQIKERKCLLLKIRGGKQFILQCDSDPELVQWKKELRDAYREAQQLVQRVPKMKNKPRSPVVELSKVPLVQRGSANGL
Put plainly: hGRK2 LANCE Ultra In Vitro Assay. The class given is biochemical. The following applies: Biological Example 1 GRK2 Lancer IC50 (μM), 10 nM GRK2; 30 or 600 μM ATP (not stated which); multiple measurements listed individually. An outline of the steps: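 TR-FRET kinase assay with 10 nM GRK2 preincubated 30 min with compound, then 200 nM ULight-peptide and 30 or 600 μM ATP in HEPES pH 7.5, 10 mM MgCl2, 1% DMSO; 120 or 60 min at ambient temperature respectively.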
(In general: In TR-FRET formats the signal depends on donor and acceptor labels being close together.)
The compound `COc1cccc([C@@H](C)N2Cc3c(cc(-c4cn[nH]c4)cc3N3CCN(C)CC3)C2=O)c1` [Compound 156, (R)-2-(1-(3-methoxyphenyl)ethyl)-4-(4-methylpiperazin-1-yl)-6-(1H-pyrazol-4-yl)isoindolin-1-one] gave an IC50 of 0.011 µM.
To `COc1cccc(C(COCCO)N2Cc3ccc(-c4cn[nH]c4)cc3C2=O)c1` (stereo not drawn) [Compound 63, 2-(2-(2-Hydroxyethoxy)-1-(3-methoxyphenyl)ethyl)-6-(1H-pyrazol-4-yl)isoindolin-1-one] belongs 0.008 µM; to `CC(c1cccc(Oc2ccccc2)c1)N1Cc2ccc(-c3cn[nH]c3)cc2C1=O` (stereo not drawn) [Compound 104], > 11 µM.
The compound `COc1cccc(C(CO)N2Cc3c(cc(-c4cn[nH]c4)cc3-c3ccc(O)cc3)C2=O)c1` (stereo not drawn) [Compound 153, 2-(2-Hydroxy-1-(3-methoxyphenyl)ethyl)-4-(4-hydroxyphenyl)-6-(1H-pyrazol-4-yl)isoindolin-1-one] registered a half-maximal inhibitory concentration (IC50) of 0.019 µM.
In the case of `CCOc1cccc(C(C(=O)O)N2Cc3ccc(-c4ccncc4)cc3C2=O)c1` (stereo not drawn) [Compound 77], the IC50 is > 20 µM.
`O=C1c2cc(-c3cn[nH]c3)ccc2CN1Cc1cccc(OCc2nn[nH]n2)c1` [Compound 88, 2-(3-((2H-Tetrazol-5-yl)methoxy)benzyl)-6-(1H-pyrazol-4-yl)isoindolin-1-one] had an IC50 of 0.029 µM.
`CCOc1cccc(CN2C(=O)c3cc(-c4c[nH]nn4)ccc3C2(C)C)c1` [Compound 39, 2-(3-Ethoxybenzyl)-3,3-dimethyl-6-(1H-1,2,3-triazol-4-yl)isoindolin-1-one] yielded a half-maximal inhibitory concentration (IC50) of 0.196 µM.
`COc1cccc(CN2C(=O)c3cc(-c4ccnc(N)n4)ccc3C2CC#N)c1` (stereo not drawn) [Compound 33] gave an IC50 of 0.098 µM.
With `CCOc1cccc([C@H](CO)N2Cc3ccc(-c4cn[nH]c4)cc3C2=O)c1` [Compound 112], the IC50 came to 0.306 µM.
To `COC(=O)NC1CCCC12c1ccc(-c3cn[nH]c3)cc1C(=O)N2Cc1cccc(OC)c1` (stereo not drawn) [Compound 115, Methyl (2′-(3-methoxybenzyl)-3′-oxo-5′-(1H-pyrazol-4-yl)spiro[cyclopentane-1,1′-isoindolin]-2-yl)carbamate] belongs 0.177 µM; to `CC(C)Oc1cccc(CN2Cc3ccc(-c4cn[nH]c4)cc3C2=O)c1` [Compound 69, 2-(3-Isopropoxybenzyl)-6-(1H-pyrazol-4-yl)isoindolin-1-one], 0.006 µM.
Take `COc1cccc(CN2C(=O)c3cc(-c4cn[nH]c4)ccc3C23CCC(C(N)=O)C3)c1` (stereo not drawn) [Compound 108, 2′-(3-methoxybenzyl)-3′-oxo-5′-(1H-pyrazol-4-yl)spiro[cyclopentane-1,1′-isoindoline]-3-carboxamide]: 0.004 µM corresponded to half-maximal inhibition (IC50).
For `COc1cccc(CN2Cc3ccc(-n4cn[nH]c4=O)cc3C2=O)c1` [Compound 44, 2-(3-methoxybenzyl)-6-(5-oxo-1,5-dihydro-4H-1,2,4-triazol-4-yl)isoindolin-1-one], half-maximal inhibition (IC50) required 0.382 µM.
Consider `COc1cccc(C(CO)N2Cc3ccc(-c4cn[nH]c4)cc3C2=O)c1` (single isomer, unassigned) [Compound 113, 2-[(1S*)-2-hydroxy-1-(3-methoxyphenyl)ethyl]-6-(1H-pyrazol-4-yl)isoindolin-1-one], for which the IC50 was found to be 0.003 µM.
The compound `COC(=O)COc1cccc(CN2Cc3ccc(-c4ccnc5[nH]ccc45)cc3C2=O)c1` [Compound 54] gave an IC50 of 0.292 µM.
The compound `COc1cccc(CN2Cc3cc(F)c(-c4cn[nH]c4)cc3C2=O)c1` [Compound 35, 5-fluoro-2-[(3-methoxyphenyl)methyl]-6-(1H-pyrazol-4-yl)isoindolin-1-one] yielded a half-inhibitory concentration (IC50) of 0.005 µM.
With `COc1cccc([C@@H](C)N2C(=O)c3cc(-c4cn[nH]c4)ccc3[C@@H]2CC(=O)O)c1` (single isomer, unassigned) [Compound 97] the figure was 0.012 µM.
With `COc1cccc(C(C(=O)N(C)C)N2Cc3ccc(-c4cn[nH]c4)cc3C2=O)c1` (stereo not drawn) [Compound 168], it took 0.146 µM to reach half-maximal inhibition (IC50). Against the preceding compound, the IC50 is about 12-fold higher.

The record behind these values is patent US20220009906A1, “ISOINDOLIN-1-ONE DERIVATIVES USEFUL AS GRK2 INHIBITORS” (priority 2020, published 2022).
